# Assay results as given in EP0415456A2, “Xanthine compounds” (priority 1989, dated 1991).
# Assays:
# Adenosine A₁ Receptor = molecular target: T1, Adenosine A₁ Receptor (Cavia porcellus, UniProt P47745); assay: Adenosine A1 receptor binding (3H-CHA binding); set-up: species or system guinea pig; details: for Ratio of Ki Values [A₂/A₁]: A₂ Ki (rat corpus striatum) / A₁ Ki (guinea pig cerebrum); for Ki: calculated from Cheng-Prusoff's equation, ³H-CHA; for Ki / inhibition at 100 µM / inhibition at 10 µM: guinea pig cerebrum; for inhibition at 100 µM: concentration of tested compound 10⁻⁴ M; for inhibition at 100 µM / inhibition at 10 µM: ³H-CHA 1.1 nM; for inhibition at 10 µM: concentration of tested compound 10⁻⁵ M
# T1 construct: from tissue; host or cells: guinea pig cerebrum membrane preparation
# T1 sequence (P47745 1-326): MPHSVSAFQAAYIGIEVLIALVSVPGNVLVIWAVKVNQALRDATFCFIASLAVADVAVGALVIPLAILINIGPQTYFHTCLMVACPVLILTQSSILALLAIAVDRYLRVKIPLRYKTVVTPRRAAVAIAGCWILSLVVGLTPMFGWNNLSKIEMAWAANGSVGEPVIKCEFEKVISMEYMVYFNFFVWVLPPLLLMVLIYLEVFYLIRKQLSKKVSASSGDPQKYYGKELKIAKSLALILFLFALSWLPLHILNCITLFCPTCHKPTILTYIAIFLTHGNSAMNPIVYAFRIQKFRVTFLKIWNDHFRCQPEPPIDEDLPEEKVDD
# Procedure: Cerebrum of a guinea pig was suspended into ice cooled 50 mM tris hydroxymethyl aminomethane hydrochloride (Tris HCl) buffer (pH = 7.7), by using Polytron homogenizer (manufactured by Kinematica Co.). The suspension was centrifuged (50,000 x g, 10 minutes), and the precipitate was resuspended by adding the same volume of 50 mM Tris HCl buffer. The suspension was centrifuged under the same conditions, and the precipitate obtained was suspended once again by adding 10 volumes of 50 mM Tris HCl. The tissue suspension was incubated at 37°C for 30 minutes in the presence of 0.02 units/mg tissue of adenosine deaminase (manufactured by Sigma Co.). The resulting tissue suspension was recentrifuged (50,000 x g, 10 minutes), and 50 mM Tris HCl was added to the precipitate to adjust the concentration of tissue to 10 mg (wet weight)/mℓ.
# The mixture was incubated at 25°C for 90 minutes, and the resulting reaction was stopped by rapid vacuum filtration through a glass fiber filter (GF/C manufactured by Whatman Co.) followed by immediately washing three times with 5 mℓ each of ice cold 50 mM Tris HCl buffer. […] Its radioactivity was then determined by a scintillation counter (manufactured by Packard Instrument Co.).
# The inhibition rate of the test compounds against the binding of A₁ […] (³H-CHA binding) was calculated from the following equation: [formula]
# • 1. […] The inhibition constant (Ki value) shown in the table was calculated from Cheng-Prusoff's equation.
# Wistar rats = assay: diuretic effect; format: in vivo; details: 25 mg/kg oral, urine collected for 6 hours; for Increase in K⁺ excretion (%) / Increase in Na⁺excretion (%) / Increase in Urine (%): relative to control; for Na⁺/K⁺: relative value of control (control 1.00)
# Procedure: Wistar rats (male: 150 - 300 g) were starved for 18 hours prior to the administration of the test compounds. […] Urine was collected for 6 hours after the administration. Urine volume was measured and the electrolytes (Na+ and K+) in the urine were determined with a flame photome[…], Hitachi Ltd., Japan). All parameters are expressed as relative values of control.
# male dd-strain mice = assay: acute toxicity test; format: in vivo
# Procedure: […]. The Minimum lethal dose (MLD) of the compounds was determined by observing whether or not the mice were alive after 7 days of the administration.
# A₂ receptor = molecular target: T2, A₂ receptor (Rattus norvegicus, UniProt P30543); assay: Adenosine A2 receptor binding (3H-NECA binding); details: for inhibition at 10 µM / inhibition at 100 µM: read-out: A₂ Receptor Inhibition (%); for Ki: ³H-NECA with CPA, rat corpus striatum, read-out: A₂ Receptor Ki
# T2 construct: A precipitate was prepared from rat corpus striatum; from tissue; host or cells: rat corpus striatum membrane preparation
# Procedure: A precipitate was prepared from rat corpus striatum in a similar manner as in 1) above. The precipitate was suspended by adding a 50 mM Tris HCl buffer containing 10 mM magnesium chloride and 0.02 unit/mg (tissue) of adenosine deaminase (manufactured by Sigma Co.) to adjust the concentration of tissue to 5 mg (wet weight)/mℓ.
# The mixture was incubated at 25°C within 120 minutes. The resulting mixture was treated in the same manner as in 1) above to determine its radioactivity.
# The inhibition rate of the test compound against the binding of A₂ receptor (³H-NECA binding) was calculated from the following equation: [formula]
# [1] = test system: glycerol-induced renal failure model; assay: renal-protecting effect (glycerol-induced renal failure model); format: in vivo; details: male Wistar rats; for suppression of increases of the serum creatinine and of urine-nitrogen: 0.01 - 10 mg/kg i.p., 24 hours after 50% glycerol s.c. (p < 0.05); for pathological examination of removed kidneys: state of kidneys: i.p., left kidney removed 24 hours after 50% glycerol s.c.
# Procedure: A renal failure is a state wherein the renal function is lowered and the homeostasis of a body fluid can be no more maintained. It is known that an acute renal failure characteristic of uriniferous tubule disorder is caused by subcutaneous or intramuscular injection of glycerol to rats [Can. J. Physiol.
# Male Wistar rats were kept deprived or water for 18 hours, and served for the test. A test compound was intraperitoneally administered to the rats (dosage: 1 mℓ/kg) and the rats were anesthetized with ether and 50% glycerol was subcutaneously administered (dosage: 0.8mℓ/100g) to the rats, pinching the dorsal skin. Twenty four hours after the administration of glycerol, the rats were anesthetized with ether and 5 mℓ of blood were collected from the abdominal aorta. The collected blood was allowed to stand for 30 minutes or longer and then centrifuged at 3,000 rpm for 10 minutes, and the amounts of the serum creatinine and urine-nitrogen (UN) contained in the serum were determined by auto analyzer (Olympus AU510) or measured by a creatinine test Wako (Jaffé method) and UN Test Wako (diacetylmonooxime direct method). Both are manufactured by Wako Pure Chemicals Co.
# On the other hand, the left kidneys of the blood-sampled rats were removed and placed in formalin-filled vial bottles, and used as samples for the pathological examination.
# [2] = 300 mg/kg orally administered, male dd-strain mice, observed 7 days after administration
# T2 sequence (P30543 whole entry): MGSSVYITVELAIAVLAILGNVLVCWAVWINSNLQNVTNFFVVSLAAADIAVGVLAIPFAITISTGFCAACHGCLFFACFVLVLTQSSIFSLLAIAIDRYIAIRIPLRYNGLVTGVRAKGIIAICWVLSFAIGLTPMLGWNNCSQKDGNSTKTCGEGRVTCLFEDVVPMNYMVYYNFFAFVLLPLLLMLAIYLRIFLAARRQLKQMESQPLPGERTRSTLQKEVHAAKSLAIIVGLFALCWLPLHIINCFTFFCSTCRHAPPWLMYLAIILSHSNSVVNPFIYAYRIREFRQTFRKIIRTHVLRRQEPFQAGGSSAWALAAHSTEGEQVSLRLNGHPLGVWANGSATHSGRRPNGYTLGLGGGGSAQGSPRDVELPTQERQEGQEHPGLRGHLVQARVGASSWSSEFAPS
SMILES,Ratio of Ki Values [A₂/A₁] (Adenosine A₁ Receptor),Ki (Adenosine A₁ Receptor) [nM],inhibition at 100 µM (Adenosine A₁ Receptor) [%],inhibition at 10 µM (Adenosine A₁ Receptor) [%],Increase in K⁺ excretion (%) (Wistar rats),Increase in Na⁺excretion (%) (Wistar rats),Increase in Urine (%) (Wistar rats),Na⁺/K⁺ (Wistar rats),"Minimum lethal dose (MLD) (male dd-strain mice; mouse, in vivo, 10080 min)",inhibition at 10 µM (A₂ receptor) [%],inhibition at 100 µM (A₂ receptor) [%],Ki (A₂ receptor) [nM],suppression of increases of the serum creatinine and of urine-nitrogen [1],pathological examination of removed kidneys: state of kidneys [1],Minimum lethal dose (MLD) (male dd-strain mice; [2])
"CCCn1c(=O)c2[nH]c([C@H]3C[C@@H]4C=C[C@@H]3C4)nc2n(CCC)c1=O (relative stereo) [Compound 1, 8-[(1R*,4S*,5S*)-2-Bicyclo[2.2.1]hepten-5-yl]-1,3-dipropylxanthine]",92.7,5.5,99,99,36,73,106,1.27,more than 300 mg/kg,88,97,510,,,
"CCCn1c(=O)c2[nH]c([C@H]3C[C@H]4CC[C@@H]3C4)nc2n(CCC)c1=O (relative stereo) [Compound 3, 8-[(1R*,2S*,5S*)-Bicyclo[2,2,1]heptan-2-yl]-1,3-dipropylxanthine]",75.0,4.4,100,100,29,137,154,1.84,more than 300 mg/kg,83,90,330,,,
"CCCn1c(=O)c2[nH]c([C@@H]3CC[C@H]4CCC[C@H]43)nc2n(CCC)c1=O (relative stereo) [Compound 5, 8-[(1R*,2R*,5R*)-Bicyclo[3.3.0]octan-2-yl]-1,3-dipropylxanthine]",86.8,3.8,99,99,32,109,88,1.58,more than 300 mg/kg,91,99,330,,,
"CCCn1c(=O)c2c(nc([C@H]3C[C@@H]4C=C[C@@H]3C4)n2C)n(CCC)c1=O (relative stereo) [Compound 17, 8-[(1R*,4S*, 5S*)-2-Bicyclo[2.2.1]hepten-5-yl]-1,3-dipropyl-7-methylxanthine]",,,,,51,107,155,1.37,more than 300 mg/kg,,,,significantly suppressed,significantly improved,
"CCCn1c(=O)[nH]c(=O)c2[nH]c([C@@H]3CC[C@H]4CCC[C@H]43)nc21 (relative stereo) [Compound 23, 8-[(1R*,2R*,5R*)-Bicyclo[3.3.0]octan-2-yl]-3-propylxanthine]",,,,,,,,,,,,,significantly suppressed,significantly improved,more than 300 mg/kg
"CCCn1c(=O)c2nc(C3CC4CCC3C4)[nH]c2n(CCC)c1=O (stereo not drawn) [Compound 4, 8-[(1R*,2R*,5S*)-bicyclo[2.2.1)heptan-2-yl]-1,3-dipropylxanthine]",,,,,27,106,113,1.63,more than 300 mg/kg,,,,,,
"CCCn1c(=O)c2[nH]c(Cc3csc(N)n3)nc2n(CCC)c1=O [Compound 12, 8-(2-Aminothiazol-4-yl)methyl-1,3-dipropylxanthine]",,,,,32,103,108,1.54,,,,,,,300 mg/kg
"CCCn1c(=O)c2nc(C34CC5CC(CC3C5)C4)[nH]c2n(CCC)c1=S [Compound 31, 8-(Noradamantan-3-yl)-1,3-dipropyl-2-thioxanthine]",,,,,56,126,115,1.44,more than 300 mg/kg,,,,significantly suppressed,significantly improved,
"CCCn1c(=S)c2[nH]c(C34CC5CC(CC3C5)C4)nc2n(CCC)c1=O [Compound 32, 8-(Noradamantan-3-yl)-1,3-dipropyl-6-thioxanthine]",,,,,41,114,100,1.51,more than 300 mg/kg,,,,,,
"CCCn1c(=S)c2[nH]c(C34CC5CC(CC3C5)C4)nc2n(CCC)c1=S [Compound 33, 8-(Noradamantan-3-yl)-1,3-dipropyl-2,6-dithioxanthine]",,,,,40,105,99,1.47,more than 300 mg/kg,,,,,,
